From US20160067193A1, “TOPICAL PTEROSTILBENE COMPOSITIONS FOR USE IN TREATING UV-INDUCED SKIN DAMAGE AND HYPERPLASIA” (The Regents of the University of California, priority 2014, published 2016)

Assays:
[1] = In vitro glucuronidation assay with pooled human liver microsomes; assay type: in vitro ADME; settings: 100 μg pooled human liver microsomes (n=20), 500 μM compound, HPLC 308 nm
skin of SKH-1 mice [2] = assay: UV-B induced visual skin damage (redness) in SKH-1 mice, topical treatment; assay type: in vivo; settings: topical 10 μmol/0.2 ml acetone/mouse 30 min before 180 mJ/cm^2 UV-B, every 2 days, 7 treatments, 5 mice per group
Protocol: FIG. 2 depicts the manner in which pterostilbene prevents UV-B induced damage in the skin of SKH-1 mice. […] Photographs show representative mice after 4th treatment.
(§1) UV-B exposure. Mice were exposed to a single dose of 180 mJ/cm^2 UVB radiation delivered via broadband UVB lamps (TL 40 W/12 RS; Philips) emitting 290-350 nm light with a peak emission at 312 nm. The irradiance was measured using a thermopile sensor (818P-001-12; Newport Inc., Irvine, Calif.) and power meter (842-PE; Newport Inc.).
Hairless SKH-1 mice were used to evaluate the effectiveness of pterostilbene at preventing UV-mediated damage in skin. The SKH-1 model is ideally suited for this purpose and is commonly used in preclinical studies and yielded valuable results. […] To ascertain if pterostilbene could also prevent those molecular alterations, we replicated these experiments. […] For all topical treatments 200 μl total volume was applied to the back skin of the mouse. For acetone group, 200 μl of acetone was applied. […] These mice were treated every 2 days for 7 total treatments. […] 24 hrs after last treatment, mice were euthanized, skin bi-fold measurements taken and back skins collected. As shown in FIGS. 2 and 3A-B, pterostilbene prevented UV-B-induced damage in mouse skin. […] This prevention of visual skin damage by pterostilbene correlated nicely with the prevention of DNA damage. […]

skin of SKH-1 mice [3] = assay: ELISA of UV-B induced DNA damage (CPD, 64 pp) in back skin DNA of SKH-1 mice; assay type: in vivo; settings: topical 10 μmol/mouse before 180 mJ/cm^2 UV-B, 14-day experiment
Text: FIGS. 3A and 3B depict the manner in which pterostilbene prevents UV-B induced DNA damage in the skin of SKH-1 mice, namely (A) CPD or (B) 64 pp DNA damage. ELISAs are shown for different arms of mouse study (Abs. 492 nm). * indicates p<0.01 as compared with vehicle (VEH). (RES) is resveratrol and (PTERO) is pterostilbene. NS is not significant.
as §1
ELISAS. DNA was isolated from snap frozen whole back skin using Qiagen QIAamp Blood mini kit (cat #51104) per manufacturer's instructions. ELISAs were performed on purified DNA with anti-CPD (clone TDM2) and anti-64 PP (clone 64M-2) antibodies using manufacturer's protocol and read using a DTX 800 Multimode Detector plate reader (Beckman Coulter) using standard settings from colorimetric detection. Four technical replicates were used and DNA-free wells were used as negative control.
Hairless SKH-1 mice were used to evaluate the effectiveness of pterostilbene at preventing UV-mediated damage in skin. The SKH-1 model is ideally suited for this purpose and is commonly used in preclinical studies and yielded valuable results. […] To ascertain if pterostilbene could also prevent those molecular alterations, we replicated these experiments. […] For all topical treatments 200 μl total volume was applied to the back skin of the mouse. For acetone group, 200 μl of acetone was applied. […] These mice were treated every 2 days for 7 total treatments. […] 24 hrs after last treatment, mice were euthanized, skin bi-fold measurements taken and back skins collected. As shown in FIGS. 2 and 3A-B, pterostilbene prevented UV-B-induced damage in mouse skin. […] This prevention of visual skin damage by pterostilbene correlated nicely with the prevention of DNA damage. […] Therefore pterostilbene prevented the 2 major types of UV-induced DNA damage (CPD and 64 pp) in the skin of SKH-1 mice.
DNA was obtained from the back skin of the SKH-1 mice from the experiment above after completion of the 14-day experiment. This DNA was then examined for DNA damage (both CPD and 64 pp) quantitatively using ELISA as previously described (Nishiwaki, Y., et al., “Trichothiodystrophy fibroblasts are deficient in the repair of ultraviolet-induced cyclobutane pyrimidine dimers and (6-4) photoproducts,” J. Invest. Dermatol. (2004) 122: 526-32). […] Quantification of DNA damage was measured at 492 nm by a spectrophotometer.

skin of SKH-1 mice [4] = assay: UV-B mediated bi-fold skin thickening and hyperplasia (H&E) in SKH-1 mice; assay type: in vivo; settings: topical 10 μmol/mouse before 180 mJ/cm^2 UV-B
Protocol: FIG. 3C depicts the manner in which pterostilbene prevents UV-mediated bi-fold skin thickening. Bi-fold skin measurements (mm) were made using a digital caliper. At least three measurements for each mouse were taken along the back.
FIG. 4 depicts the manner in which pterostilbene prevents UV-mediated hyperplasia. H&E stains of back skins from mice in the indicated treatment arms (i.e., UV-B treated and control) were performed.
as §1
Hairless SKH-1 mice were used to evaluate the effectiveness of pterostilbene at preventing UV-mediated damage in skin. The SKH-1 model is ideally suited for this purpose and is commonly used in preclinical studies and yielded valuable results. […] To ascertain if pterostilbene could also prevent those molecular alterations, we replicated these experiments. […] For all topical treatments 200 μl total volume was applied to the back skin of the mouse. For acetone group, 200 μl of acetone was applied. […] These mice were treated every 2 days for 7 total treatments. […]

[5] = cited from earlier work; for bioavailability: in vivo
[6] = rats, relative to resveratrol; cited from earlier work
[7] = 125 mg orally twice a day, human; cited from earlier work
mouse epidermis = settings: cited from earlier work

extent of metabolism (glucuronidation) after 2 hours [1] [%]	SMILES	redness (sunburn) on back skin (skin of SKH-1 mice [2])	64 pp DNA damage by ELISA (Abs. 492 nm) (skin of SKH-1 mice [3])	CPD DNA damage by ELISA (Abs. 492 nm) (skin of SKH-1 mice [3])	UV-mediated bi-fold skin thickening (skin of SKH-1 mice [4]; digital caliper on dorsal skin, versus vehicle+UV-B)	UV-mediated hyperplasia (H&E stain of back tissue) (skin of SKH-1 mice [4]; formalin fixed paraffin embedded back tissue)	half life t1/2 in blood [5]	bioavailability [5]	increased bioavailability versus resveratrol [6] [fold]	overall blood pressure [7]	toxicity in patients [7]	COX-2 activation and TPA-induced tumor formation in mouse epidermis in vivo (mouse epidermis; 12-O-tetradecanoylphorbol-13-acetate (TPA), mouse epidermis in vivo)	potency versus resveratrol in inhibition of NF-KB, AP-1 and iNOS activation in mouse skin (mouse epidermis; mouse skin)
20	COc1cc(/C=C/c2ccc(O)cc2)cc(OC)c1 [pterostilbene, 3,5-dimethoxy-4′-hydroxy-trans-stilbene]	no redness was observed on any of the 5 mice	no 64 pps are observed	no CPDs were detected	prevented UV-mediated bi-fold skin thickening	prevented UV-mediated hyperplasia at the cellular level	about 105 minutes	orally bioavailable	5	reduction in overall blood pressure was observed	no toxicity reported	prevent COX-2 activation and 12-O-tetradecanoylphorbol-13-acetate (TPA)-induced tumor formation	equally or significantly more potent than resveratrol
–	Oc1ccc(C=Cc2cc(O)cc(O)c2)cc1 [resveratrol, reference compound]	able to limit the amount of redness observed on the back, it did not prevent it	no 64 pps are observed	quantitatively detected above background	–	–	about 14 minutes	poor bioavailability	–	–	–	–	–
